Assay results as given in patent publication US20240101540A1, “TARGETED PROTEIN DEGRADATION OF PARP14 FOR USE IN THERAPY” (Ribon Therapeutics, Inc., priority 2022, published 2024).

Biological target: T1, catalytic domain of human PARP14 (residues 1611 to 1801) with NanoLuc tag (Homo sapiens, UniProt Q460N5)
T1 construct: expressed in transfected cells; host or cells: HEK-293T cells (ATCC), pcDNA3.1(-) vector
T1 sequence (Q460N5 1611-1801): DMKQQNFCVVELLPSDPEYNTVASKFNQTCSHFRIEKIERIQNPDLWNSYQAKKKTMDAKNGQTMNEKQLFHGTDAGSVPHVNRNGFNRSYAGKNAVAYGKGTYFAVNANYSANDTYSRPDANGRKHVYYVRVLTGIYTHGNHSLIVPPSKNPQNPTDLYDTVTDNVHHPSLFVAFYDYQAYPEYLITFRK
Assay: NanoLuc assay for the degradation of PARP14 (NanoLuc-tagged PARP14 overexpressed in HEK-293T cells, 2 hours)
Assay type: cell-based
Details: Assay A (Example A): NanoLuc-tagged PARP14 degradation in HEK-293T cells, read-out: DC50
Method: The insert also contained a NanoLuc tag on the N terminus of the PARP14 protein.
Degradation of PARP14 protein was assessed using measurement of the NanoLuc tag as proxy for the PARP14 protein. […] Plasmid DNA was diluted in empty vector DNA then added to 1.163 mL of phenol red free OptiMEM (Thermo Fisher). Plasmid DNA concentrations used in each assay described in Table 1. The plasmid DNA was mixed with 78.5 μL of Fugene HD (Promega) and allowed to incubate 5 minutes.
The transfection was incubated for 24 hrs at 37 degrees in an incubator supplemented with 5% CO2. The cells were then trypsinized and brought up in phenol red free OptiMEM media. […] 40 nL of a dose response curve diluted in DMSO of each test compound was added to the cell plate using a Mosquito (TTP Labtech) and the plate was incubated at 37° C. for 2 hours. Assay plate was brought to room temperature then 20 μL per well of NanoGlo (Promega) was added to the plate. Luminescence was measured on an Envision (Perkin Elmer).
The average DMSO was calculated from 32 wells containing 0.1% DMSO only in columns 12 and 24 of the assay plate. The % of DMSO values were calculated as described below: […]
The % of DMSO values were plotted as a function of compound concentration and the following 4-parameter fit was applied to derive the DC50 values:
where top, bottom, and Hill Coefficient are allowed to float. Y is the % of DMSO and X is the compound concentration
DC50 data for the Example compounds is provided below in Table 2 (“+” is <0.1 μM; “++” is ≥0.1 μM and <1 μM; and “+++” is ≥1 μM).

Row | DC50 | Structure (SMILES)
1 | < 100 nM | O=C1CCC(N2C(=O)c3ccc(N4CC(N5CCC(COc6cc(F)c7c(=O)[nH]c(CSC8CCOCC8)nc7c6)CC5)C4)cc3C2=O)C(=O)N1 (stereo not drawn) [Example 41, 2-(2,6-dioxopiperidin-3-yl)-5-(3-(4-(((5-fluoro-4-oxo-2-(((tetrahydro-2H-pyran-4-yl)thio)methyl)-3,4-dihydroquinazolin-7-yl)oxy)methyl)piperidin-1-yl)azetidin-1-yl)isoindoline-1,3-dione]
2 | < 100 nM | O=C1CCC(N2C(=O)c3ccc(N4CC(N5CCC(COc6cc(F)c7c(=O)[nH]c(CSC8CCOCC8)nc7c6)C(F)(F)C5)C4)cc3C2=O)C(=O)N1 (stereo not drawn) [Example 42, 5-(3-(3,3-difluoro-4-(((5-fluoro-4-oxo-2-(((tetrahydro-2H-pyran-4-yl)thio)methyl)-3,4-dihydroquinazolin-7-yl)oxy)methyl)piperidin-1-yl)azetidin-1-yl)-2-(2,6-dioxopiperidin-3-yl)isoindoline-1,3-dione]
3 | < 100 nM | O=C1CCC(N2C(=O)c3ccc(/C=C/CN4CCC(COc5cc(F)c6c(=O)[nH]c(CSC7CCOCC7)nc6c5)CC4)cc3C2=O)C(=O)N1 (stereo not drawn) [Example 43, (E)-2-(2,6-dioxopiperidin-3-yl)-5-(3-(4-(((5-fluoro-4-oxo-2-(((tetrahydro-2H-pyran-4-yl)thio)methyl)-3,4-dihydroquinazolin-7-yl)oxy)methyl)piperidin-1-yl)prop-1-en-1-yl)isoindoline-1,3-dione]
4 | < 100 nM | CN1CCC(SCc2nc3cc(OCC4CCN(c5ccc6c(c5)C(=O)N(C5CCC(=O)NC5=O)C6=O)CC4)cc(F)c3c(=O)[nH]2)CC1 (stereo not drawn) [Example 44, 2-(2,6-dioxopiperidin-3-yl)-5-(4-(((5-fluoro-2-(((1-methylpiperidin-4-yl)thio)methyl)-4-oxo-3,4-dihydroquinazolin-7-yl)oxy)methyl)piperidin-1-yl)isoindoline-1,3-dione]
5 | < 100 nM | O=C1CCC(c2ccc(NCC#CCN3CCC(COc4cc(F)c5c(=O)[nH]c(CSC6CCOCC6)nc5c4)CC3)cc2)C(=O)N1 (stereo not drawn) [Example 45, 3-(4-((4-(4-(((5-fluoro-4-oxo-2-(((tetrahydro-2H-pyran-4-yl)thio)methyl)-3,4-dihydroquinazolin-7-yl)oxy)methyl)piperidin-1-yl)but-2-yn-1-yl)amino)phenyl)piperidine-2,6-dione]
6 | < 100 nM | O=C1CCC(Nc2ccc(OCC3CC(N4CCC(COc5cc(F)c6c(=O)[nH]c(CSC7CCOCC7)nc6c5)CC4)C3)cc2)C(=O)N1 (stereo not drawn) [Example 46, 3-((4-((3-(4-(((5-fluoro-4-oxo-2-(((tetrahydro-2H-pyran-4-yl)thio)methyl)-3,4-dihydroquinazolin-7-yl)oxy)methyl)piperidin-1-yl)cyclobutyl)methoxy)phenyl)amino)piperidine-2,6-dione]

Second part, the compound before the results:

Row | Structure (SMILES) | DC50
7 | O=C1CCC(N2Cc3c(C#CCN4CCC(COc5cc(F)c6c(=O)[nH]c(CSC7CCOCC7)nc6c5)CC4)cccc3C2=O)C(=O)N1 (stereo not drawn) [Example 30, 3-(4-(3-(4-(((5-fluoro-4-oxo-2-(((tetrahydro-2H-pyran-4-yl)thio)methyl)-3,4-dihydroquinazolin-7-yl)oxy)methyl)piperidin-1-yl)prop-1-yn-1-yl)-1-oxoisoindolin-2-yl)piperidine-2,6-dione] | < 100 nM
8 | Cn1c(=O)n(C2CCC(=O)NC2=O)c2cccc(C#CCN3CCC(COc4cc(F)c5c(=O)[nH]c(CSC6CCOCC6)nc5c4)CC3)c21 (stereo not drawn) [Example 31, 3-(4-(3-(4-(((5-fluoro-4-oxo-2-(((tetrahydro-2H-pyran-4-yl)thio)methyl)-3,4-dihydroquinazolin-7-yl)oxy)methyl)piperidin-1-yl)prop-1-yn-1-yl)-3-methyl-2-oxo-2,3-dihydro-1H-benzo[d]imidazol-1-yl)piperidine-2,6-dione] | < 100 nM
9 | O=C1CCN(c2ccc(C#CCN3CCC(COc4cc(F)c5c(=O)[nH]c(CSC6CCOCC6)nc5c4)CC3)cc2)C(=O)N1 [Example 32, 1-(4-(3-(4-(((5-fluoro-4-oxo-2-(((tetrahydro-2H-pyran-4-yl)thio)methyl)-3,4-dihydroquinazolin-7-yl)oxy)methyl)piperidin-1-yl)prop-1-yn-1-yl)phenyl)dihydropyrimidine-2,4(1H,3H)-dione] | < 100 nM
10 | O=C1CCN(c2cccc(C#CCN3CCC(COc4cc(F)c5c(=O)[nH]c(CSC6CCOCC6)nc5c4)CC3)c2)C(=O)N1 [Example 33, 1-(3-(3-(4-(((5-fluoro-4-oxo-2-(((tetrahydro-2H-pyran-4-yl)thio)methyl)-3,4-dihydroquinazolin-7-yl)oxy)methyl)piperidin-1-yl)prop-1-yn-1-yl)phenyl)dihydropyrimidine-2,4(1H,3H)-dione] | < 100 nM
11 | O=C1CCC(N2C(=O)c3ccc(N4CCC(CN5CCC(COc6cc(F)c7c(=O)[nH]c(CSC8CCOCC8)nc7c6)CC5)CC4)cc3C2=O)C(=O)N1 (stereo not drawn) [Example 34, 2-(2,6-dioxopiperidin-3-yl)-5-(4-((4-(((5-fluoro-4-oxo-2-(((tetrahydro-2H-pyran-4-yl)thio)methyl)-3,4-dihydroquinazolin-7-yl)oxy)methyl)piperidin-1-yl)methyl)piperidin-1-yl)isoindoline-1,3-dione] | < 100 nM
12 | O=C1CCC(N2C(=O)c3cccc(N4CCC(CN5CCC(COc6cc(F)c7c(=O)[nH]c(CSC8CCOCC8)nc7c6)CC5)CC4)c3C2=O)C(=O)N1 (stereo not drawn) [Example 35, 2-(2,6-dioxopiperidin-3-yl)-4-(4-((4-(((5-fluoro-4-oxo-2-(((tetrahydro-2H-pyran-4-yl)thio)methyl)-3,4-dihydroquinazolin-7-yl)oxy)methyl)piperidin-1-yl)methyl)piperidin-1-yl)isoindoline-1,3-dione] | < 100 nM
13 | O=C1CCC(N2C(=O)c3ccc(N4CC(CN5CCC(COc6cc(F)c7c(=O)[nH]c(CSC8CCOCC8)nc7c6)CC5)C4)cc3C2=O)C(=O)N1 (stereo not drawn) [Example 36, 2-(2,6-dioxopiperidin-3-yl)-5-(3-((4-(((5-fluoro-4-oxo-2-(((tetrahydro-2H-pyran-4-yl)thio)methyl)-3,4-dihydroquinazolin-7-yl)oxy)methyl)piperidin-1-yl)methyl)azetidin-1-yl)isoindoline-1,3-dione] | < 100 nM
14 | O=C1CCC(N2C(=O)c3cccc(N4CC(CN5CCC(COc6cc(F)c7c(=O)[nH]c(CSC8CCOCC8)nc7c6)CC5)C4)c3C2=O)C(=O)N1 (stereo not drawn) [Example 37, 2-(2,6-dioxopiperidin-3-yl)-4-(3-((4-(((5-fluoro-4-oxo-2-(((tetrahydro-2H-pyran-4-yl)thio)methyl)-3,4-dihydroquinazolin-7-yl)oxy)methyl)piperidin-1-yl)methyl)azetidin-1-yl)isoindoline-1,3-dione] | < 100 nM
15 | O=C1CCC(N2Cc3c(cccc3N3CC(CN4CCC(COc5cc(F)c6c(=O)[nH]c(CSC7CCOCC7)nc6c5)CC4)C3)C2=O)C(=O)N1 (stereo not drawn) [Example 38, 3-(4-(3-((4-(((5-fluoro-4-oxo-2-(((tetrahydro-2H-pyran-4-yl)thio)methyl)-3,4-dihydroquinazolin-7-yl)oxy)methyl)piperidin-1-yl)methyl)azetidin-1-yl)-1-oxoisoindolin-2-yl)piperidine-2,6-dione] | < 100 nM
16 | O=C1CCC(N2C(=O)c3cccc(N4CCN(CC5CCN(C(=O)CN6CCC(COc7cc(F)c8c(=O)[nH]c(CCC9CCOCC9)nc8c7)CC6)CC5)CC4)c3C2=O)C(=O)N1 (stereo not drawn) [Example 39, 2-(2,6-dioxopiperidin-3-yl)-4-(4-((1-(2-(4-(((5-fluoro-4-oxo-2-(2-(tetrahydro-2H-pyran-4-yl)ethyl)-3,4-dihydroquinazolin-7-yl)oxy)methyl)piperidin-1-yl)acetyl)piperidin-4-yl)methyl)piperazin-1-yl)isoindoline-1,3-dione] | < 100 nM
17 | O=C1CCC(N2C(=O)c3cccc(N4CC(N5CCC(COc6cc(F)c7c(=O)[nH]c(CSC8CCOCC8)nc7c6)CC5)C4)c3C2=O)C(=O)N1 (stereo not drawn) [Example 40, 2-(2,6-dioxopiperidin-3-yl)-4-(3-(4-(((5-fluoro-4-oxo-2-(((tetrahydro-2H-pyran-4-yl)thio)methyl)-3,4-dihydroquinazolin-7-yl)oxy)methyl)piperidin-1-yl)azetidin-1-yl)isoindoline-1,3-dione] | < 100 nM
18 | O=C1CCC(Nc2ccc(OC3CC(CN4CCC(COc5cc(F)c6c(=O)[nH]c(CSC7CCOCC7)nc6c5)CC4)C3)cc2)C(=O)N1 (stereo not drawn) [Example 47, 3-({4-[3-({4-[({5-fluoro-2-[(oxan-4-ylsulfanyl)methyl]-4-oxo-3H-quinazolin-7-yl}oxy)methyl]piperidin-1-yl}methyl)cyclobutoxy]phenyl}amino)piperidine-2,6-dione] | < 100 nM
